{
  "source": "paper PMC9329436",
  "about": "“Optimization of the 4-anilinoquin(az)oline scaffold as epidermal growth factor receptor (EGFR) inhibitors for chordoma utilizing a toxicology profiling assay platform” (Scientific Reports, 2022)",
  "format_in_all_cases": "biochemical",
  "key": {"[1]": {"biological_target": "320 wild-type protein kinases (Homo sapiens, UniProt O00506)", "sequence (O00506 whole entry)": "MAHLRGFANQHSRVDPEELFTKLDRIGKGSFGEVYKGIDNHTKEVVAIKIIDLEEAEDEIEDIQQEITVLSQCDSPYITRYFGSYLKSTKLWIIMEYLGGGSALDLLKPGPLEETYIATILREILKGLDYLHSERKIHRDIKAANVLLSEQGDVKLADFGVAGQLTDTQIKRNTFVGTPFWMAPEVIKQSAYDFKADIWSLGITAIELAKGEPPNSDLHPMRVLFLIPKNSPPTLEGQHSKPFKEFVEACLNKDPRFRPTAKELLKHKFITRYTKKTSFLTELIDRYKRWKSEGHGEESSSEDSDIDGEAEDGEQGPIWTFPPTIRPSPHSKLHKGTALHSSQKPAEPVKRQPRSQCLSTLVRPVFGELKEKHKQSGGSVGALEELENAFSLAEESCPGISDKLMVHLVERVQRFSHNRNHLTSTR", "conditions": "kinase STK25, singlicate", "description": "(§1) Table S4. Profiling of two compounds at two concentrations against 320 wild-type protein kinases; singlicate measurement; Residual activities (% of control)."}, "[2]": {"biological_target": "T1, 320 wild-type protein kinases (Homo sapiens, UniProt O14965)", "T1 sequence (O14965 1-403)": "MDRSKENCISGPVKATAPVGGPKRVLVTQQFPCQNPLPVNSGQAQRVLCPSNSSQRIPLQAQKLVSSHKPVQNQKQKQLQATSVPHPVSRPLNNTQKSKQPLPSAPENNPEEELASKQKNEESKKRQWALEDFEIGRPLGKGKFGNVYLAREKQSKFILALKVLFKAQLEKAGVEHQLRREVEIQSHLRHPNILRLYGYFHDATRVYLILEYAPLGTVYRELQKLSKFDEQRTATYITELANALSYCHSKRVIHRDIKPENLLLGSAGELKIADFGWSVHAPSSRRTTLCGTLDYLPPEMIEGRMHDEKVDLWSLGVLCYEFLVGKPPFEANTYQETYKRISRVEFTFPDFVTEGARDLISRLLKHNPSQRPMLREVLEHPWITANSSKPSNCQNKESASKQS", "conditions": "Aurora-A, singlicate", "description": "as §1"}, "[3]": {"biological_target": "320 wild-type protein kinases (Homo sapiens, UniProt P05771)", "sequence (P05771 whole entry)": "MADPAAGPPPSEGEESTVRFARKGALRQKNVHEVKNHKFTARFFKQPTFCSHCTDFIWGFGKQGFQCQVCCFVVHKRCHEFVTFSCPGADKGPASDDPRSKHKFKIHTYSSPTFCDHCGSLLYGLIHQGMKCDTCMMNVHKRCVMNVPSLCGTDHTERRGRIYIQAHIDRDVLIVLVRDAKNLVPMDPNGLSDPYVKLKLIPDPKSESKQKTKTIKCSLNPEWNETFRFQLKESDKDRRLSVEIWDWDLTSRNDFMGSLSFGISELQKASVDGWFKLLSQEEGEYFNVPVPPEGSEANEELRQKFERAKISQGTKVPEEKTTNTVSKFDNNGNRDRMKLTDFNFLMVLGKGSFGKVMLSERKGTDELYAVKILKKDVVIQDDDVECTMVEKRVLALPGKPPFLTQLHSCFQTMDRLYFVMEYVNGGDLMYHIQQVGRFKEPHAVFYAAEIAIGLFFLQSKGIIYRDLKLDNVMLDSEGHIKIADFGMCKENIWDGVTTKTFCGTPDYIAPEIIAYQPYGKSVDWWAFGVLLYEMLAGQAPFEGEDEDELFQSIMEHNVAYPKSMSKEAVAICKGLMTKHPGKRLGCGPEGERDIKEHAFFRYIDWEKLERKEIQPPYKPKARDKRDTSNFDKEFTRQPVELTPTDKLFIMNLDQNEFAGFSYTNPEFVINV", "conditions": "singlicate", "description": "as §1"}, "[4]": {"biological_target": "320 wild-type protein kinases (Homo sapiens, UniProt P17252)", "conditions": "PKC-alpha, singlicate", "description": "as §1"}, "[5]": {"biological_target": "320 wild-type protein kinases (Homo sapiens, UniProt P43250)", "sequence (P43250 whole entry)": "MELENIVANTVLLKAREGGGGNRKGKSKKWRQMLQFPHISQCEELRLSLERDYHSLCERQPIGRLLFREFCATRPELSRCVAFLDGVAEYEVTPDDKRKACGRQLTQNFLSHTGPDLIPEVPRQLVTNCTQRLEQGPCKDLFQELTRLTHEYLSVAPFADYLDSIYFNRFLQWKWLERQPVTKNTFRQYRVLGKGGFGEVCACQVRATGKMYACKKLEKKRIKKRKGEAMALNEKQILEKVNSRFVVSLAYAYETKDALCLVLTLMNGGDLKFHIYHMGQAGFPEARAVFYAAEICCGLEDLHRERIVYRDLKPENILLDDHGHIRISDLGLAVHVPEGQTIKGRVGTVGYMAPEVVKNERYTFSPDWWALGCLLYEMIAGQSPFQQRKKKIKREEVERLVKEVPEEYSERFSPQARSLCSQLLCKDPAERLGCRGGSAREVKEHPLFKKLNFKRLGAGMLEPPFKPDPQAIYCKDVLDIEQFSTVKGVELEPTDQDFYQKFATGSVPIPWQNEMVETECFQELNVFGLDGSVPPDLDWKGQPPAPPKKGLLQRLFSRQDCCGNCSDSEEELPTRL", "conditions": "singlicate", "description": "as §1"}, "[6]": {"biological_target": "T2, 320 wild-type protein kinases (Homo sapiens, UniProt Q13043)", "T2 sequence (Q13043 1-487)": "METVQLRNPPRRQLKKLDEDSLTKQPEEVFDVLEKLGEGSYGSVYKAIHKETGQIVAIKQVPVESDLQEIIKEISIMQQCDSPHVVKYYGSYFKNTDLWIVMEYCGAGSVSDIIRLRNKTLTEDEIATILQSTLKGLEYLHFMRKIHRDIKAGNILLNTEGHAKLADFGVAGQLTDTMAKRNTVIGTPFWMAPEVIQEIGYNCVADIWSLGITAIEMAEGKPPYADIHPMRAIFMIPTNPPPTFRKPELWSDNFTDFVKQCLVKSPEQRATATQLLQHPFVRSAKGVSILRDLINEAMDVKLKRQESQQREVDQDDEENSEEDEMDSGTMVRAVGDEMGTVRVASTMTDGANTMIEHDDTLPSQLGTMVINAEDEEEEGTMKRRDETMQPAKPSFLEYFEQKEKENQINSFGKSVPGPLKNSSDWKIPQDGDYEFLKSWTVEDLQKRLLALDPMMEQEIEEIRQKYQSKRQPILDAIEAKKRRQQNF", "conditions": "singlicate", "description": "as §1"}, "[7]": {"biological_target": "320 wild-type protein kinases (Homo sapiens, UniProt Q13705)", "sequence (Q13705 19-512)": "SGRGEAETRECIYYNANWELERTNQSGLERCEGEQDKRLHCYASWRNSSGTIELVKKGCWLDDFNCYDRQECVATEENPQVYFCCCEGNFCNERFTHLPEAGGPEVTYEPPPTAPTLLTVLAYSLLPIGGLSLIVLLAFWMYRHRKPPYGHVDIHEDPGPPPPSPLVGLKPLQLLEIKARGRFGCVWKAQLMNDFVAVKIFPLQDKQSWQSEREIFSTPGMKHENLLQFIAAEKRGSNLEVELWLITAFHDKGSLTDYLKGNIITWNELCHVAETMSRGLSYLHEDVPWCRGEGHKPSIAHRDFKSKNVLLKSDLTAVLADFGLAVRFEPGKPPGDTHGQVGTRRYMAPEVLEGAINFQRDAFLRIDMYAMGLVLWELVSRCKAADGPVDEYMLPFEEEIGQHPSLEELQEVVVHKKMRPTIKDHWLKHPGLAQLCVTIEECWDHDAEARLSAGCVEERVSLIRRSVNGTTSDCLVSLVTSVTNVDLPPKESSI", "conditions": "ACV-R2B, singlicate", "description": "as §1"}, "[8]": {"biological_target": "320 wild-type protein kinases (Homo sapiens, UniProt Q15759)", "sequence (Q15759 whole entry)": "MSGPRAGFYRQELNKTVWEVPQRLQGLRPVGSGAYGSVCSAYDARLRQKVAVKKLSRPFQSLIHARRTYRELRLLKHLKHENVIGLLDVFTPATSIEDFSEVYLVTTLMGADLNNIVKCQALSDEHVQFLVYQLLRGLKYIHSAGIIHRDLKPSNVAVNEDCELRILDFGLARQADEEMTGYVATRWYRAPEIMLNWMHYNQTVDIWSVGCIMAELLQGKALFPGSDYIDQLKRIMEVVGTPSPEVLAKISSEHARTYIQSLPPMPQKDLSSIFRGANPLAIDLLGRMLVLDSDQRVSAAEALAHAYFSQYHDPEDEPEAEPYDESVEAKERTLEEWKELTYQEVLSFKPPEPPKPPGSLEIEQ", "conditions": "p38-beta, singlicate", "description": "as §1"}, "[9]": {"biological_target": "320 wild-type protein kinases (Homo sapiens, UniProt Q9BYT3)", "sequence (Q9BYT3 whole entry)": "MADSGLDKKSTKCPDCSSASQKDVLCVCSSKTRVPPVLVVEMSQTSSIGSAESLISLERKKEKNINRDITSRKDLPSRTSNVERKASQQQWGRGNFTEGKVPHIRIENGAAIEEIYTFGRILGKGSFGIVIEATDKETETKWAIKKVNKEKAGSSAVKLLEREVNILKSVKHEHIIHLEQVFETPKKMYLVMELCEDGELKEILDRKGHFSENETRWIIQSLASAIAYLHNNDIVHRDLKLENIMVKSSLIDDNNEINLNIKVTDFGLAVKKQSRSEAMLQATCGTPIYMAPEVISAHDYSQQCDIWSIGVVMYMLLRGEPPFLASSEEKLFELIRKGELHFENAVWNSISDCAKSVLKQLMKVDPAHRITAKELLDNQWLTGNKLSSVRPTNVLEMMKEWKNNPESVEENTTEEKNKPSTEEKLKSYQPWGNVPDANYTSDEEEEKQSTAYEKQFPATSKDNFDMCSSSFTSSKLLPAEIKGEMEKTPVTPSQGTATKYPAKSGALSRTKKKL", "conditions": "kinase STK33, singlicate", "description": "as §1"}, "[10]": {"biological_target": "T3, 320 wild-type protein kinases (Homo sapiens, UniProt Q9BZL6)", "T3 sequence (Q9BZL6 1-878)": "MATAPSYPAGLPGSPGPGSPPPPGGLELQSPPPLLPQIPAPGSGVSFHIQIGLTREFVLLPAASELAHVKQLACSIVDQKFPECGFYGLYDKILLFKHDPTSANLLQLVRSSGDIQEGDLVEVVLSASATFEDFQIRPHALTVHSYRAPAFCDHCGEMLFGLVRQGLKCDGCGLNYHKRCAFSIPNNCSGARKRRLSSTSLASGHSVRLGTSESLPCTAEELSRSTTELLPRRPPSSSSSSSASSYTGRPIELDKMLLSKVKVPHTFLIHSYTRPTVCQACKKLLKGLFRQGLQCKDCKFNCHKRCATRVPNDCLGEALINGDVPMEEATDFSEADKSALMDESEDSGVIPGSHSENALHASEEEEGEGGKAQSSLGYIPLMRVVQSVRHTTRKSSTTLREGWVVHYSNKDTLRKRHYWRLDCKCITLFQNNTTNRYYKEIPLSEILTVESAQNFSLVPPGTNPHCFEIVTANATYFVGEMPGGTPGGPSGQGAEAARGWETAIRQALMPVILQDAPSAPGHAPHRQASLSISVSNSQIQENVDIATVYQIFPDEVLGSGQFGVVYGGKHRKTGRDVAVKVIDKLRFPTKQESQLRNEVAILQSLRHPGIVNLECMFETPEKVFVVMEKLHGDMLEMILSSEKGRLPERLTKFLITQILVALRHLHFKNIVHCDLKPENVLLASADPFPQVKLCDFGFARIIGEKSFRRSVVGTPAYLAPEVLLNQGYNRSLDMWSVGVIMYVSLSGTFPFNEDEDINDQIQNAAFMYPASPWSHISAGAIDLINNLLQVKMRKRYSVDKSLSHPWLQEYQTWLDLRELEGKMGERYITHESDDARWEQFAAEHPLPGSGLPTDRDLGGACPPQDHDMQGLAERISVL", "conditions": "singlicate", "description": "as §1"}, "[11]": {"biological_target": "320 wild-type protein kinases (Homo sapiens, UniProt Q9H2X6)", "sequence (Q9H2X6 whole entry)": "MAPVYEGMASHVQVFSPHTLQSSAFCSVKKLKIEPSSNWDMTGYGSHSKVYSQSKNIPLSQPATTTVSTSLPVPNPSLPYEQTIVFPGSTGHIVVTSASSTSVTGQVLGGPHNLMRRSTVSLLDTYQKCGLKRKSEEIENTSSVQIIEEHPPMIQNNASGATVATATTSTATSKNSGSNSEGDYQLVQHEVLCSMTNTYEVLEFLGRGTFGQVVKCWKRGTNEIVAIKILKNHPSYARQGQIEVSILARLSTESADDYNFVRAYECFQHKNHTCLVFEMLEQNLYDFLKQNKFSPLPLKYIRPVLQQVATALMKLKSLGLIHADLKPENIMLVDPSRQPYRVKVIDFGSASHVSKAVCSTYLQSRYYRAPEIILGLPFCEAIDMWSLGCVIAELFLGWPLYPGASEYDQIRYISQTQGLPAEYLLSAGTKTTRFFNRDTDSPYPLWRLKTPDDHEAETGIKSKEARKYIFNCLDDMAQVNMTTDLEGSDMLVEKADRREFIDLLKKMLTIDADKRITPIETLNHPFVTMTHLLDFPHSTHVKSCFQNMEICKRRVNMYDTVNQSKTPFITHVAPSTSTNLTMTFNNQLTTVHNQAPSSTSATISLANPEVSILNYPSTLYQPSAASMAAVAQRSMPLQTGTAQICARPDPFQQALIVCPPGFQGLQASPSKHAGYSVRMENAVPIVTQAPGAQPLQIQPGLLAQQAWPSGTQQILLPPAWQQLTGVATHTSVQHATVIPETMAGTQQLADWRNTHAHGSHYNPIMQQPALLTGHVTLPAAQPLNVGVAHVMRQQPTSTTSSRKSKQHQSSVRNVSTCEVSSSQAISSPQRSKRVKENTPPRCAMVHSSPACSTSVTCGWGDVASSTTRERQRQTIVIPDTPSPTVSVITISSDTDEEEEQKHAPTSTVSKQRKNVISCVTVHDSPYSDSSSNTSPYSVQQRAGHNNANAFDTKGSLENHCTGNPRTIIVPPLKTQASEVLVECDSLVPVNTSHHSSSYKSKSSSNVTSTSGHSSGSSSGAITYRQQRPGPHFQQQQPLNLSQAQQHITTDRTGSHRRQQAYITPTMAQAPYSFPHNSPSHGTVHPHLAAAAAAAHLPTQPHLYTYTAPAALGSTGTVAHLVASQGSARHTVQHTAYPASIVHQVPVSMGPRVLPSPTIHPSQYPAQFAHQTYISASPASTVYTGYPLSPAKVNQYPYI", "conditions": "singlicate", "description": "as §1"}},
  "note": "Read-outs that look alike come from different tables or passages of the source.",
  "data": [
    {"compound": "C#Cc1cc(Nc2ncnc3cc(I)ccc23)ccc1Cl", "note": "[Compound 41]", "values": [
      {"measurement": "Residual activity, STK25", "setting": "[1]; assay conc. 1.0E-06 M", "value": "100 % of control"},
      {"measurement": "Residual activity, STK25", "setting": "[1]; assay conc. 1.0E-07 M", "value": "95 % of control"},
      {"measurement": "Residual activity", "setting": "[2]; 1.0E-06 M", "value": "81 % of control"},
      {"measurement": "Residual activity", "setting": "[2]; 1.0E-07 M", "value": "95 % of control"},
      {"measurement": "Residual activity", "setting": "[3]; PKC-beta1, 1.0E-06 M", "value": "96 % of control"},
      {"measurement": "Residual activity", "setting": "[3]; PKC-beta1, 1.0E-07 M", "value": "110 % of control"},
      {"measurement": "Residual activity", "setting": "[4]; 1.0E-06 M", "value": "95 % of control"},
      {"measurement": "Residual activity", "setting": "[4]; 1.0E-07 M", "value": "86 % of control"},
      {"measurement": "Residual activity", "setting": "[5]; GRK6, 1.0E-06 M", "value": "120 % of control"},
      {"measurement": "Residual activity", "setting": "[5]; GRK6, 1.0E-07 M", "value": "124 % of control"},
      {"measurement": "Residual activity", "setting": "[6]; MST1, 1.0E-06 M", "value": "84 % of control"},
      {"measurement": "Residual activity", "setting": "[6]; MST1, 1.0E-07 M", "value": "80 % of control"},
      {"measurement": "Residual activity", "setting": "[7]; 1.0E-06 M", "value": "84 % of control"},
      {"measurement": "Residual activity", "setting": "[7]; 1.0E-07 M", "value": "91 % of control"},
      {"measurement": "Residual activity", "setting": "[8]; 1.0E-06 M", "value": "84 % of control"},
      {"measurement": "Residual activity", "setting": "[8]; 1.0E-07 M", "value": "82 % of control"},
      {"measurement": "Residual activity, STK33", "setting": "[9]; assay conc. 1.0E-06 M", "value": "89 % of control"},
      {"measurement": "Residual activity, STK33", "setting": "[9]; assay conc. 1.0E-07 M", "value": "98 % of control"},
      {"measurement": "Residual activity", "setting": "[10]; PRKD2, 1.0E-06 M", "value": "84 % of control"},
      {"measurement": "Residual activity", "setting": "[10]; PRKD2, 1.0E-07 M", "value": "97 % of control"},
      {"measurement": "Residual activity", "setting": "[11]; HIPK2, 1.0E-06 M", "value": "101 % of control"},
      {"measurement": "Residual activity", "setting": "[11]; HIPK2, 1.0E-07 M", "value": "97 % of control"}
    ]},
    {"compound": "C#Cc1cc(Nc2ncnc3cc(OC)c(OC)cc23)ccc1Cl", "note": "[Compound 45]", "values": [
      {"measurement": "Residual activity, STK25", "setting": "[1]; assay conc. 1.0E-06 M", "value": "104 % of control"},
      {"measurement": "Residual activity, STK25", "setting": "[1]; assay conc. 1.0E-07 M", "value": "111 % of control"},
      {"measurement": "Residual activity", "setting": "[2]; 1.0E-06 M", "value": "80 % of control"},
      {"measurement": "Residual activity", "setting": "[2]; 1.0E-07 M", "value": "99 % of control"},
      {"measurement": "Residual activity", "setting": "[3]; PKC-beta1, 1.0E-06 M", "value": "88 % of control"},
      {"measurement": "Residual activity", "setting": "[3]; PKC-beta1, 1.0E-07 M", "value": "95 % of control"},
      {"measurement": "Residual activity", "setting": "[4]; 1.0E-06 M", "value": "94 % of control"},
      {"measurement": "Residual activity", "setting": "[4]; 1.0E-07 M", "value": "111 % of control"},
      {"measurement": "Residual activity", "setting": "[5]; GRK6, 1.0E-06 M", "value": "101 % of control"},
      {"measurement": "Residual activity", "setting": "[5]; GRK6, 1.0E-07 M", "value": "133 % of control"},
      {"measurement": "Residual activity", "setting": "[6]; MST1, 1.0E-06 M", "value": "83 % of control"},
      {"measurement": "Residual activity", "setting": "[6]; MST1, 1.0E-07 M", "value": "89 % of control"},
      {"measurement": "Residual activity", "setting": "[7]; 1.0E-06 M", "value": "85 % of control"},
      {"measurement": "Residual activity", "setting": "[7]; 1.0E-07 M", "value": "83 % of control"},
      {"measurement": "Residual activity", "setting": "[8]; 1.0E-06 M", "value": "87 % of control"},
      {"measurement": "Residual activity", "setting": "[8]; 1.0E-07 M", "value": "90 % of control"},
      {"measurement": "Residual activity, STK33", "setting": "[9]; assay conc. 1.0E-06 M", "value": "76 % of control"},
      {"measurement": "Residual activity, STK33", "setting": "[9]; assay conc. 1.0E-07 M", "value": "100 % of control"},
      {"measurement": "Residual activity", "setting": "[10]; PRKD2, 1.0E-06 M", "value": "73 % of control"},
      {"measurement": "Residual activity", "setting": "[10]; PRKD2, 1.0E-07 M", "value": "80 % of control"},
      {"measurement": "Residual activity", "setting": "[11]; HIPK2, 1.0E-06 M", "value": "94 % of control"},
      {"measurement": "Residual activity", "setting": "[11]; HIPK2, 1.0E-07 M", "value": "98 % of control"}
    ]}
  ]
}
